Results as given in patent US5932742A, “Arylsulfonylimidazolone derivatives as an antitumor agent” (priority 1996, dated 1999).
Converted amounts (≈) assume the structure as drawn. “Also recorded” adds a separate entry of the source. Counter-ions that a name gives are not always drawn. Like-named read-outs stand apart in the source and are kept apart here. Blank lines part the entries; values can stand above or below the molecule they belong to.

Columns and labels:
[1] = test system: Colon 26 murine colon cancer cell; assay: In vivo antitumor activity against Colon 26 murine colon cancer cell; set-up: species or system Balb/C mouse; conditions: 65 mg/kg p.o., once per 2 days for 10 days; tumor weight
Experimental: In vivo antitumor activity against Colon 26 murine colon cancer cell
Colon 26 murine cancer cells were injected into Balb/C mouse intradermally and grown in mouse abdominal skin to a solid tumor. The Colon 26 tumors were periodically excised from the mouse, digested with an enzyme mixture containing collagenase and DNase, and then intradermally reinjected into mouse for subculture.
The cells were washed, resuspended in saline (5×10^6 cells/ml) and inoculated (5×10^5 cells/0.1 ml) intradermally to abdominal part of Balb/C mouse of which hair was removed in advance. Each test compound was dissolved in a solvent mixture of 60% propylene glycol(PG), 40% cremophor RH60(CP), and distilled water(DW) in the volume ratio of 30:20:50. When the size of tumor reached at appropriate level, the test compound was administered orally into the mouse which was implanted with colon 26 tumor cells in the frequency of once per 2 days for 10 days. The vehicle was also administered into the mouse of control group. The major and minor axis of tumor in each group were regularly measured by vernier calipers to estimate the increase of the tumor volume. Tumor volume was calculated on the basis of the following formula
Tumor volume(mm^3)=(1/2)×[length of major axis(mm)]×[length
When the tumor volume of the control group reached at about 1500 mm^3, the test animals were sacrificed by cervical dislocation and tumor was carefully excised and weighed. The inhibition rate of tumor growth (%) of each test compound was calculated as follows: […]
group.div.Tumor weight of control group)]

Male Wistar Rat = assay: Acute toxicity test (LD50); format: in vivo; conditions: gastric lavage
Experimental: (§1) Acute toxicity test (LD50)
(§2) Male Wistar Rat (Charles River Japan, ca, 6 weeks old) was used as test animal and sodium-carboxymethylcellulose (Na-CMC, Sigma Chemical, U.S.A.) was used as a vehicle control. Compounds 57 and 65 were suspended in 0.5% Na-CMC, respectively, before dosing. Test compounds were administered by gastric lavage with the dosage of 400, 550, 700, 850 and ^1000 mg/kg. Control group was treated only with 0.5% Na-CMC. Each group was consisted of 5 rats.

[2] = Acute toxicity test (LD50); format: in vivo; conditions: in vivo, po; gastric lavage, male Wistar rat; probit method; 95% confidence interval in parenthesis on the next line
Experimental: as §1, §2

[3] = test system: P388 murine leukemia cells; assay: In vivo antitumor activity against P388 murine leukemia cell; set-up: species or system BDF1 mouse; conditions: once per 2 days for 10 days, median survival time
Experimental: In vivo antitumor activity against P388 murine leukemia cell
P388 murine leukemia cells were injected into BDF1 mouse intraperitoneally and grown in the peritoneal cavity. The P388 cells were periodically exudated and reinjected intraperitoneally into mouse for subculture.
The cells were exudated, washed, resuspended in saline (2×10^7 cells/ml), and then injected intraperitoneally again into BDF1 mouse (2×10^6 cells/0.1 ml).
Test compound dissolved in appropriate vehicle was administered intraperitonealy or orally into the mouse which was implanted with P388 murine leukemia tumor cells in the frequency of once per 2 days for 10 days. The vehicle was administered into the mouse of control group. Then, the number of live animals were daily checked to estimate the median survival time (MST).
T/C ratio(%) of each test compound was calculated according to the following formula, and the test results are shown in Table 6.
T/C(%)=(MST of test group.div.MST of control group)×100

[4] = test system: SK-OV-3 (ATCC HTB 77): human ovarian adenocarcinoma; assay: In vitro antitumor activity, MTT assay, SK-OV-3; format: cell-based; conditions: Homo sapiens
In short: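 Cells seeded at 10,000 per well, grown 24 h, then exposed 48 h at 37 °C to compound at final 20 to 0.00128 μg/ml (5-fold dilutions, DMSO below 0.5%). MTT added for 4 h, formazan dissolved in DMSO, absorbance read at 540 nm; IC50 estimated by linear regression.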

[5] = test system: K562 (ATCC CCL 243): human chronic myelogenous leukemia; assay: In vitro antitumor activity, MTT assay, K562; format: cell-based; conditions: Homo sapiens, K562, 48 h
In short: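 K562 cells (10,000/well) pre-cultured 24 hrs, then exposed 48 hrs at 37° C. to serially 5-fold diluted compound, final 20 μg/ml to 0.00128 μg/ml, DMSO below 0.5%. MTT added 4 hrs; formazan dissolved in DMSO, A540 read. Cytotoxicity as test/control absorbance; IC50 by linear regression.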

[6] = test system: A549 (ATCC CCL 185): human lung carcinoma; assay: In vitro antitumor activity, MTT assay, A549; format: cell-based; conditions: Homo sapiens, A549, 48 h
In short: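 A549 cells in RPMI 1640 with 10% FBS, 10,000 cells/well, pre-cultured 24 hrs, then exposed 48 hrs at 37° C to compound at 20 to 0.00128 μg/ml final (5-fold steps, DMSO below 0.5%). MTT added for 4 hrs, formazan dissolved in DMSO and read at 540nm; IC50 by linear regression of % of control.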

[7] = literature; cited from earlier work
[8] = test system: solid tumors and human tumor xenogafts; conditions: J. Med. Chem., 1990, 33, 2393; cited from earlier work
[9] = test system: Colo205 (ATCC CCL 222): human colon adenocarcinoma; assay: In vitro antitumor activity, MTT assay, Colo205; format: cell-based; conditions: Homo sapiens
In short: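 Colo205 cells in RPMI 1640/10% FBS were exposed 48 h at 37 °C to 5-fold serial dilutions, final 20 to 0.00128 µg/ml, DMSO below 0.5%. MTT added for 4 h, formazan dissolved in DMSO, A540 read versus medium control; IC50 by linear regression.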

SMILES: Nc1ccc(C(=O)N2CCc3cc(S(=O)(=O)N4CC(c5ccccc5)NC4=O)ccc32)cc1 (centres unmarked) [Example 57, 4-phenyl-1-[N-(4-aminobenzoyl)indoline-5-sulfonyl]-4,5-dihydro-2-imidazolone.HCl]
Inhibition rate of tumor growth (%) [1]: 67.4%
Acute toxicity, animals per group (dead/total) (Male Wistar Rat; 400 mg/kg): 0/5
Acute toxicity, animals per group (dead/total) (Male Wistar Rat; 550 mg/kg): 1/5
Acute toxicity, animals per group (dead/total) (Male Wistar Rat; 700 mg/kg): 3/5
Acute toxicity, animals per group (dead/total) (Male Wistar Rat; 850 mg/kg): 5/5
Acute toxicity, animals per group (dead/total) (Male Wistar Rat; 1000 mg/kg): 5/5
LD50 [2]: 644 mg/kg
T/C rate (%) ([3]; 50 mg/kg p.o.): 133.3%
T/C rate (%) ([3]; 65 mg/kg p.o.): 146.0%
T/C rate (%) ([3]; 100 mg/kg i.p.): 166.7%
T/C rate (%) ([3]; 100 mg/kg p.o.): 175.0%
IC50 ([4]; SK-OV-3, Table 4, 48 hrs): 0.572 µg/mL
IC50 ([5]; Table 4, read-out: IC50 (K562)): 0.203 µg/mL
IC50 ([6]; Table 4): 0.09 µg/mL

IC50 ([4]; SK-OV-3, Table 5, 48 hrs): 78.2 µg/mL (≈ 223 µM)
IC50 ([5]; Table 3, read-out: IC50 (K562)): 17.6 µg/mL (≈ 50.1 µM)
IC50 ([5]; Table 4, read-out: IC50 (K562)): 17.6 µg/mL (≈ 50.1 µM)
IC50 ([5]; Table 5, read-out: IC50 (K562)): 17.6 µg/mL (≈ 50.1 µM)
IC50 ([9]; COLO 205, Table 3, 48 hrs, read-out: IC50 (Col205)): 48.9 µg/mL (≈ 139 µM)
IC50 ([9]; COLO 205, Table 5, 48 hrs, read-out: IC50 (Colo205)): 48.9 µg/mL (≈ 139 µM)
IC50 ([6]; Table 1): 12.8 µg/mL (≈ 36.4 µM)
IC50 ([6]; Table 3): 12.8 µg/mL (≈ 36.4 µM)
IC50 ([6]; Table 4): 12.8 µg/mL (≈ 36.4 µM)
IC50 ([6]; Table 5): 12.8 µg/mL (≈ 36.4 µM)
SMILES: O=C(Nc1ccc(Cl)cc1)NS(=O)(=O)c1ccc2c(c1)CCC2 [Sulofenur, reference compound]
side effects [7]: does not produce serious side effects including myelosuppression, nausea, vomiting, alopecia, mucositis, and hepatotoxicity; also recorded: only shows minor side effects such as anemia or methemoglobinemia
antitumor activity [8]: exhibits potent antitumor activity upon solid tumors; also recorded: exceptionally broad spectrum of activity upon solid tumors and human tumor xenogafts
